# In US12612465B2, “Formulations comprising PCSK9 specific monoclonal antibodies” (Amgen Inc., priority 2012, dated 2026):
# Tested on: PCSK9
# Test: Serum lipids after a single subcutaneous dose in cynomolgus monkeys
# Assay type: in vivo, cynomolgus monkey
# Conditions: 0.5 mg/kg single SC
# Description: Briefly, naive male cynomolgus monkeys were acclimated to their environment for at least 2 weeks prior to experimentation. Animals were randomized into treatment groups based on a pre-screen of their serum TC, HDL-C, LDL-C, and triglyceride levels, and their body weight. After 1 week, animals were fasted overnight, and bled from the peripheral vasculature (cephalic or saphenous vein), for measurement of baseline serum lipid levels at a time point designated T=0. […] Fasting blood samples were then collected from animals at designated time points over a 45 day period.
# At specified time points, blood was collected from animals under overnight fasting conditions from the peripheral vasculature (cephalic or saphenous vein). Whole blood was allowed to coagulate for 30 minutes at room temperature. Following centrifugation at 3,000 rpm for 20 minutes, serum was collected. Direct serum cholesterol analysis was performed using the Cobas Integra 400 analyzer (Roche Diagnostics Inc, Indianapolis, Ind.). Apolipoprotein B serum levels were determined at specified time points (day 0, 3, 6, 15, 24 and 33) by Anilytics, Md., with the following methodology. A 17 μL aliquot of the sample (no preparation) was used for analysis with a Hitachi 717 Analyzer using a 6 points standard curve. If the initial value of the sample was higher than the standard curve linearity, then the sample was diluted and repeated with the result multiplied by the appropriate dilution factor. The reagents for the assay (APO-B Reagent Kit #86071, Antibody Set #86060, Control Set #86103) were obtained from DiaSorin (Stillwater, Minn.).
# A statistical model that considers baseline as a covariate and treatment group as a fixed effect was fit to the log transformed response at each time point for LDL-C, HDL-C, TC, and triglycerides. Tukey's multiple comparison correction was applied to adjust the pair wise comparisons at each time point. The statistical significance was evaluated at alpha=0.05 using adjusted p-values.
substance,measurement,setting,value
"11F1: anti-PCSK9 ABP, light/heavy variable region SEQ ID NO 465/463 [Antibody 11F1]",TC returned to levels similar to control animals,,≤ 27 days
same,maximal LDL-C lowering as compared to control animals,,57%
same,maximal TC lowering as compared to control animals,,27%
same,maximal lowering of LDL-C vs anti-KLH IgG2 control at the same time point (change),,−57%
same,serum HDL-C vs anti-KLH IgG2 control,,No statistically significant changes
same,time of maximal LDL-C lowering after injection,,9 days
same,time of maximal TC lowering after injection,,9 days
same,triglycerides levels vs anti-KLH IgG2 control,,No statistically significant changes
same,serum ApoB vs anti-KLH IgG2 control,"days 3, 6, 15, 24 and 33",ApoB lowering at days 3 to 24
same,HDL-C or triglyceride levels vs anti-KLH IgG2 control,"each time point, alpha=0.05",not significantly different
